Each block holds one compound with its values, some of them ahead of it.
Experiments:
5-HT2C receptors = molecular target: T1, 5-HT2C receptors (Rattus norvegicus, UniProt P08909); assay: Penile erection test in the rat, erection induced by Ro 60-0175; type: in vivo; conditions: for ED50: rat, sc, read-out: ID50 (inhibitory dose50) for inhibition of penile erections induced by Ro 60-0175
T1 construct: Male rats of the Wistar line (Iffa-Credo, France); from tissue; host or cells: whole animal: male Wistar rat (in vivo)
T1 sequence (P08909 33-460): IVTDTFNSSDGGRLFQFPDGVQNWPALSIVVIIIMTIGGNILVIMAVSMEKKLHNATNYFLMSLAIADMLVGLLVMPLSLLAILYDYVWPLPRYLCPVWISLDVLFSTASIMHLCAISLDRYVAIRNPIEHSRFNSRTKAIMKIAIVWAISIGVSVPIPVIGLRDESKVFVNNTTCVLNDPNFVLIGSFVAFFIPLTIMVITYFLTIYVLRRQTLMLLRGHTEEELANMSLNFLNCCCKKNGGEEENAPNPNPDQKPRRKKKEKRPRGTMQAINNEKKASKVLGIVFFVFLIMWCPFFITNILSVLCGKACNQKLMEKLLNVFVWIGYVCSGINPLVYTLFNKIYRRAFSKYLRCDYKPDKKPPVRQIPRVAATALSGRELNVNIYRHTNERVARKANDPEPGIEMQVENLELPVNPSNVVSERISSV
Procedure: Penile Erection Test in the Rat, with Erection Induced by Ro 60-0175 (1.25 mg/kg, s.c.)
This test (Eur. J. Pharma., 1997, 325, 9-12) enables evaluation of the capacity of pharmacological agents to inhibit penile erections induced by the administration of Ro 60-0175, a selective 5-HT2C agonist. Inhibition is thus predictive of an antagonist activity in respect of 5-HT2C receptors. Male rats of the Wistar line (Iffa-Credo, France), weighing 120-140 g on the day of the experiment, are placed individually into plexiglass observation boxes (7.5×18×30 cm) having just been administered the product or its carrier. Thirty minutes later, the animals are administered Ro 60-0175 (1.25 mg/kg, s.c.) and the number of erections achieved in the course of the following 30 minutes is counted.

Compound: CCOC(=O)C1(C2NCCc3c2[nH]c2cc(Cl)c(Cl)cc32)CCC1.Cl (stereo not drawn) [Example 6, Ethyl 1-(6,7-dichloro-2,3,4,9-tetrahydro-1H-β-carbolin-1-yl)cyclobutanecarboxylate Hydrochloride]
- ED50 (5-HT2C receptors): 0.9 mg/kg

Compound: CCOC(=O)C1(C2NCCc3c2[nH]c2ccc(OC)cc32)CCC1.Cl (stereo not drawn) [Example 7, Ethyl 1-(6-methoxy-2,3,4,9-tetrahydro-1H-β-carbolin-1-yl)cyclobutanecarboxylate Hydrochloride]
- ED50 (5-HT2C receptors): 1.1 mg/kg

Compound: CCOC(=O)C1(C2NCCc3c2[nH]c2ccc(Cl)cc32)CCC1.Cl (stereo not drawn) [Example 1, Ethyl 1-(6-chloro-2,3,4,9-tetrahydro-1H-β-carbolin-1-yl)cyclobutanecarboxylate Hydrochloride]
- ED50 (5-HT2C receptors): 0.9 mg/kg

Further lines, results first:

- melting point: 232 to 233 °C
Compound: COC(=O)C1(C2NCCc3c2[nH]c2ccc(Cl)cc32)CCC1.Cl (stereo not drawn)

- ID50 (inhibitory dose50) for inhibition of penile erections induced by Ro 60-0175 (5-HT2C receptors; s.c., male Wistar rats, product given 30 min before Ro 60-0175 (1.25 mg/kg, s.c.), erections counted over following 30 min): 0.5 mg/kg
Compound: CCOC(=O)C1(C2NCCc3c2[nH]c2ccc(Cl)c(Cl)c32)CCC1.Cl (stereo not drawn) [Example 18, Ethyl 1-(5,6-dichloro-2,3,4,9-tetrahydro-1H-β-carbolin-1-yl)cylobutanecarboxylate Hydrochloride]

- melting point: 218 to 219 °C
Compound: CCOC(=O)C1(C2c3[nH]c4ccc(Cl)cc4c3CCN2C(C)=O)CCC1 (stereo not drawn) [Example 79, Ethyl 1-(2-acetyl-6-chloro-2,3,4,9-tetrahydro-1H-β-carbolin-1-yl)cyclobutanecarboxylate]
